# Assay results: patent publication US20070293544A1, “Novel 4-Arylamino Pyridone Derivatives as Mek Inhibitors for the Treatment of Hyper-Proliferative Disorders” (priority 2004, published 2007)
# Tests used:
# [1] = test system: human melanoma Mel5 cells; test: Tumor cell proliferation assay (ATP Lite), Mel5; type: cell-based; conditions: 4 days incubation
# Protocol: (§1) Assay 2: Tumor Cell Proliferation Assays (ATP Lite)
# (§2) Murine colon C26, human melanoma A375 and human melanoma Mel5 cells were plated in 96 well Corning white plates (1500 cells/well for C26, and 2000 cells/well for A375, and MiaPaCa-2) and cultured overnight at 37° C. in 5% CO2. Inhibitors were serially diluted in 100% DMSO and subsequently added to cells to reach a final concentration of 0.25% DMSO. The cells were incubated for 4 days in the presence of test compounds in cell growth media (DMEM with 10% fetal bovine serum, 2 mM glutamine for C26, and MiaPaCa-2, and RPMI with 10% fetal bovine serum, 2 mM glutamine for A375). Cell proliferation was quantitated using the ATP lite cell proliferation kit (Packard). Columns 2-4 show the concentration of compounds required to induce 50% cell death (IC50 in μM) of […]. With “+” meaning 100 μM<IC50≦10 μM and “++” IC50≦1 μM and “n.d.” means not determined.
# Murine colon C26 cells = test: Tumor cell proliferation assay (ATP Lite), C26; type: cell-based; conditions: 4 days incubation
# Protocol: as §1, §2
# human MEK1 = human MEK1 (Homo sapiens, UniProt Q02750); test: Inhibition of human MEK1 kinase activity, time resolved fluorescence resonance energy transfer assay; type: biochemical; conditions: 100 nM MEK1, 15 μM ATP, 300 nM ERK2, two hours
# Protocol: The activity of the compounds of the present invitation may be determined by the following procedure: Inhibition of human MEK1 kinase activity was monitored with a homogenous, fluorescence based assay. The assay uses time resolved fluorescence resonance energy transfer to probe for phosphorylation of […] by MEK1. The assay is carried out in low volume 96 well microtiterplates. In a total volume of 15 μl, compounds are incubated with 100 nM MEK1, 15 μM ATP, 300 nM ERK2 employing a buffer containing 20 mM TRIS/HCl, 10 mM MgCl2, 100 μM NaVO4, 1 mM DTT, and 0.005% Tween 20 (pH 7.4). After two hours, 5 nM Europium-anti-PY20 (Perkin Elmer) and 50 nM Anti-GST-Allophycocyanin (CisBio) in buffer containing 50 mM EDTA and 0,05% BSA are added and the reaction incubated for one hour in the dark. Time-resolved fluorescence is measured using a LJL-Analyst (Molecular Devices) with an excitation wavelength of 340 nm and an emission wavelength of 665 nm. The final concentration of DMSO is 2%. To assess the inhibitory potential of the compounds, IC50-values were determined.
# [2] = test system: human melanoma A375 cells; test: Tumor cell proliferation assay (ATP Lite), A375; type: cell-based; conditions: 4 days incubation
# Protocol: as §1, §2
# [3] = Microsomal stability assay, human liver microsomes; type: in vitro ADME; conditions: pooled human liver microsomes, pH 7.4; 3 μM compound, 0.5 mg/ml human liver microsomes, 37° C., 2 mM NADPH; read-out: HLM t½
# Protocol: (§3) Assay 3: Microsomal Stability Assay
# (§4) Compounds were tested on their stability in human, rat and mouse liver microsomal preparations (HLM, RLM and MLM respectively). At a final concentration of 3 μM, compounds were incubated at 37° C. with 0.5 mg/ml human, rat or mouse liver microsomes in a buffer containing 50 mM phosphate, pH 7.4 and 2 mM NADPH. Pooled human liver microsomes or pooled male rat liver microsomes (Sprague Dawley) were obtained from NatuTec (Frankfurt, Germany). Incubations without NADPH served as negative controls. Reactions were stopped after 0, 15, 30, 45 or 60 min by the addition of acetonitrile and microsomes were pelleted by centrifugation (10 min at 6200× g). Supernatants were analyzed by HPLC regarding the concentration of mother compound. Finally, the half-life of compounds in the regarding microsomal preparation was calculated.
# [4] = Microsomal stability assay, rat liver microsomes; type: in vitro ADME; conditions: male, Sprague Dawley, pooled rat liver microsomes, pH 7.4; 3 μM compound, 0.5 mg/ml rat liver microsomes, 37° C., 2 mM NADPH; read-out: RLM t½
# Protocol: as §3, §4
# Tumors = conditions: patients; cited from earlier work
# [5] = in vivo; cited from earlier work
# Sequence of human MEK1 (Q02750 whole entry): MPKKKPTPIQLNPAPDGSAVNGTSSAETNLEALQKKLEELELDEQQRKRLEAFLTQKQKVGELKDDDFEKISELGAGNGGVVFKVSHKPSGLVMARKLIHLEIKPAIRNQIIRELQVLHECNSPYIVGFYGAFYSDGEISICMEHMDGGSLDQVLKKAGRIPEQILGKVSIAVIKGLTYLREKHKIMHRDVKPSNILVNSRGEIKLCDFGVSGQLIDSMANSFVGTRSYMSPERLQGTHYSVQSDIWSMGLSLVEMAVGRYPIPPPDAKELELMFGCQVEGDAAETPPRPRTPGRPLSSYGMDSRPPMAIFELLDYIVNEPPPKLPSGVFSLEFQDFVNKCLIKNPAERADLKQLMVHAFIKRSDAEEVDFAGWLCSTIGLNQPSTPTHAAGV
Mel5 cells IC50 [1],C26 cells IC50 (Murine colon C26 cells),IC50 (human MEK1) [nM],A375 cells IC50 [2],half-life at 3 μM [3] [h],half-life at 3 μM [4] [h],Structure (SMILES),efficacy in clinical phase II trials (Tumors),bioavailability [5]
+ (100 μM<IC50≦10 μM),+ (100 μM<IC50≦10 μM),≤ 1000,+ (100 μM<IC50≦10 μM),–,–,"Cc1cc(Br)ccc1Nc1cc(=O)n(C)cc1C(=O)O [Compound 3a, 4-(4-Bromo-2-methyl-phenylamino)-1-methyl-6-oxo-1,6-dihydro-pyridine-3-carboxylic acid]",–,–
–,–,≤ 1000,–,–,–,"Cc1cc(I)ccc1Nc1cc(=O)n(C)cc1C(=O)O [Compound 3b, 4-(4-Iodo-2-methyl-phenylamino)-1-methyl-6-oxo-1,6-dihydro-pyridine-3-carboxylic acid]",–,–
+ (100 μM<IC50≦10 μM),+ (100 μM<IC50≦10 μM),≤ 1000,+ (100 μM<IC50≦10 μM),–,–,"Cc1cc(Br)ccc1Nc1cc(=O)n(C)cc1C(=O)NO [Compound 4a, 4-(4-Bromo-2-methyl-phenylamino)-1-methyl-6-oxo-1,6-dihydro-pyridine-3-carboxylic acid hydroxyamide]",–,–
+ (100 μM<IC50≦10 μM),+ (100 μM<IC50≦10 μM),≤ 1000,+ (100 μM<IC50≦10 μM),> 2,> 2,"Cc1cc(Br)ccc1Nc1cc(=O)n(C)cc1C(=O)NOC[C@@H](O)CO [Compound 4b, 4-[(4-Bromo-2-methylphenyl)amino]-N-{[(2S)-2,3-dihydroxypropyl]oxy}-1-methyl-6-oxo-1,6-dihydropyridine-3-carboxamide]",–,–
–,+ (100 μM<IC50≦10 μM),≤ 1000,+ (100 μM<IC50≦10 μM),> 2,> 2,"Cc1cc(I)ccc1Nc1cc(=O)n(C)cc1C(=O)NOC[C@@H](O)CO [Compound 4c, 4-[(4-Iodo-2-methylphenyl)amino]-N-{[(2S)-2,3-dihydroxypropyl]oxy}-1-methyl-6-oxo-1,6-dihydropyridine-3-carboxamide]",–,–
–,–,≤ 1000,–,0.517 to 2,0.517 to 2,"C=CCNc1nnc(-c2cn(C)c(=O)cc2Nc2ccc(Br)cc2C)o1 [Compound 7a, 5-(5-Allylamino-[1,3,4]oxadiazol-2-yl)-4-(4-bromo-2-methyl-phenylamino)-1-methyl-1H-pyridin-2-one]",–,–
–,–,–,–,–,–,O=C(NOCC1CC1)c1ccc(F)c(F)c1Nc1ccc(I)cc1Cl [PD-184352],lacking efficacy,low
